The record followed here is US12209087B2, “AKT1 modulators” (Alterome Therapeutics, Inc., priority 2022, dated 2025).

T1 sequence (P31749 whole entry E17K): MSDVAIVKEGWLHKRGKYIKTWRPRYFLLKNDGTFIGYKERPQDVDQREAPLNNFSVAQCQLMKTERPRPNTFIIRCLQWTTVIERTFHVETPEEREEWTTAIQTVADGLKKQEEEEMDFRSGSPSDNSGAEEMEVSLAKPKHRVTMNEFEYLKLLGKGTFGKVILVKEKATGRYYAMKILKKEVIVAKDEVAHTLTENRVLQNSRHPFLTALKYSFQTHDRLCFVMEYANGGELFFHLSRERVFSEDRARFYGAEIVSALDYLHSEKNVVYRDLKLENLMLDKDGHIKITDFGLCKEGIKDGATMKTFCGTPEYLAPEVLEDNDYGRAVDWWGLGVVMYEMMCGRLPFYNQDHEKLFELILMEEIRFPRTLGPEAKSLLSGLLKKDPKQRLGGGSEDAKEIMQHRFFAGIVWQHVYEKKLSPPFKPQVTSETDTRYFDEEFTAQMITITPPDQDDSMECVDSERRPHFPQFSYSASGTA

One experiment concerns the target T1, full length AKT E17K (Homo sapiens, UniProt P31749, E17K).
T1 construct: host or cells: HEK-293 (ATCC CRL-1573)
Briefly: NanoBRET Target Engagement (TE) Assay. It is filed as cell-based. Conditions: competitive displacement of tracer in cells, read-out: AKT1 E17K IC50. The procedure, abridged: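 Compound and tracer incubated 2 h before luminescence at donor 450 nm and acceptor 600 nm, with extracellular signal inhibited. EC50 by sigmoidal variable-slope regression.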
(In general: BRET reads energy transfer from a luciferase to a nearby fluorophore.)
As to `N#Cc1nccc(N2CCN(Cc3ccc(-n4c(-c5cccnc5N)nc5ccc(-c6ccc(Cl)cc6)nc54)cc3)CC2)n1` [Example 342, 4-(4-(4-(2-(2-Aminopyridin-3-yl)-5-(4-chlorophenyl)-3H-imidazo[4,5-b]pyridin-3-yl)benzyl)piperazin-1-yl)pyrimidine-2-carbonitrile], the IC50 lay in the range of 15 to 60 nM.

Take `Cc1nc2c(cc1C#N)nc(-c1cccnc1N)n2-c1ccc(CN2CCC(Nc3ccnc(C#N)n3)CC2)cc1` [Example 550, 2-(2-Aminopyridin-3-yl)-3-(4-((4-((2-cyanopyrimidin-4-yl)amino)piperidin-1-yl)methyl)phenyl)-5-methyl-3H-imidazo[4,5-b]pyridine-6-carbonitrile]: the IC50 is below 15 nM. Same read-out and setting: the same measure for `N#Cc1nccc(NC2CC3(CCN(Cc4ccc(-n5c(-c6cccnc6N)nc6ccc(-c7ccc(F)cc7)nc65)cc4)CC3)C2)n1` [Example 444, 4-((7-(4-(2-(2-Aminopyridin-3-yl)-5-(4-fluorophenyl)-3H-imidazo[4,5-b]pyridin-3-yl)benzyl)-7-azaspiro[3.5]nonan-2-yl)amino)pyrimidine-2-carbonitrile]: 15 to 60 nM. In the case of `N#Cc1ccnc(N2C[C@@H]3C[C@H]2CN3Cc2ccc(-n3c(-c4cccnc4N)nc4ccc(-c5ccccc5)nc43)cc2)n1` [Example 377, 2-((1S,4S)-5-(4-(2-(2-Aminopyridin-3-yl)-5-phenyl-3H-imidazo[4,5-b]pyridin-3-yl)benzyl)-2,5-diazabicyclo[2.2.1]heptan-2-yl)pyrimidine-4-carbonitrile], the 50% inhibitory concentration (IC50) was in the range of 60 to 600 nM. The same measure, in the same setting: the same measure for `Cc1cc2nc(-c3cccnc3N)n(-c3ccc(CN4CCC(Nc5ccnc(C#N)n5)CC4)cc3)c2nc1-c1ccc(F)cc1` [Example 499, 4-((1-(4-(2-(2-aminopyridin-3-yl)-5-(4-fluorophenyl)-6-methyl-3H-imidazo[4,5-b]pyridin-3-yl)benzyl)piperidin-4-yl)amino)pyrimidine-2-carbonitrile]: below 15 nM. The same measure, in the same setting: the same measure for `N#Cc1nccc(NC2CCN(Cc3ccc(-n4c(-c5cccnc5N)nc5ccc(-c6cscn6)nc54)cc3)CC2)n1` [Example 482, 4-((1-(4-(2-(2-Aminopyridin-3-yl)-5-(thiazol-4-yl)-3H-imidazo[4,5-b]pyridin-3-yl)benzyl)piperidin-4-yl)amino)pyrimidine-2-carbonitrile]: below 15 nM; for `Cc1nocc1-c1ccc2nc(-c3cccnc3N)n(-c3ccc(CN4CCC(Nc5ccnc(C#N)n5)CC4)cc3)c2n1` [Example 464, 4-((1-(4-(2-(2-Aminopyridin-3-yl)-5-(3-methylisoxazol-4-yl)-3H-imidazo[4,5-b]pyridin-3-yl)benzyl)piperidin-4-yl)amino)pyrimidine-2-carbonitrile]: below 15 nM.

The experiment is the same for the next values; noted with them: competitive tracer displacement in living cells, read-out: AKT1 E17K IC50.
On to `N#Cc1ccnc(N2CCN(Cc3ccc(-n4c(-c5cccnc5N)nc5ccc(-c6cccc(F)c6)nc54)cc3)CC2)n1` [Example 309, 2-(4-(4-(2-(2-Aminopyridin-3-yl)-5-(3-fluorophenyl)-3H-imidazo[4,5-b]pyridin-3-yl)benzyl)piperazin-1-yl)pyrimidine-4-carbonitrile], for which the IC50 was 15 to 60 nM. Same read-out and setting: the same measure for `N#Cc1ccnc(OC2CCN(Cc3ccc(-n4c(-c5cccnc5N)nc5cc(-c6ccccc6)cnc54)cc3)CC2)c1` [Example 11, 2-((1-(4-(2-(2-Aminopyridin-3-yl)-6-phenyl-3H-imidazo[4,5-b]pyridin-3-yl)benzyl)piperidin-4-yl)oxy)isonicotinonitrile]: 600 to 10000 nM; for `N#Cc1ccc(N2CCN(Cc3ccc(-n4c(-c5cccnc5N)nc5ccc(-c6ccccc6)nc54)cc3)CC2)cn1` [Example 94, 5-(4-(4-(2-(2-Aminopyridin-3-yl)-5-phenyl-3H-imidazo[4,5-b]pyridin-3-yl)benzyl)piperazin-1-yl)picolinonitrile]: 60 to 600 nM. The same measure, in the same setting: the same measure for `N#Cc1cccc(C(=O)NC2CCN(Cc3ccc(-n4c(-c5cccnc5N)nc5ccc(-c6ccccc6)nc54)cc3)CC2)n1` [Example 56, N-(1-(4-(2-(2-Aminopyridin-3-yl)-5-phenyl-3H-imidazo[4,5-b]pyridin-3-yl)benzyl)piperidin-4-yl)-6-cyanopicolinamide]: below 15 nM.

Usually IC50 stands for the concentration needed to halve the response being measured.
